Columns and labels:
Hepatotoxicity [1] = system: Hepatotoxicity;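 for HepSE Combined Scores: combined hepatic side effect score as listed in the training data of the Drug Induced Liver Injury Prediction System (DILIps)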; for HepSE hepatic failure: call rule not given here;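 for HepSE hepatitis: Hepatitis-related hepatic side effect score taken from the training data of DILIps, a prediction system for drug-induced liver injury; call rule not given here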;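 for HepSE hepatomegaly: hepatic side effect score for hepatomegaly, taken from the training set of the DILIps drug-induced liver injury prediction system; call rule not given here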; for HepSE liver disease: call rule not given here;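 for HepSE liver fatty: hepatic side effect score for fatty liver, taken from the DILIps training set for predicting drug-induced liver injury; call rule not given here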;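 for HepSE liver function tests abnormal: hepatic side effect score taken from the DILIps (drug-induced liver injury prediction system) training data, here covering abnormal liver function test findings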
Hepatotoxicity [2] = system: Hepatotoxicity; remark: listed apart in the source;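 for HepSE Combined Scores: combined hepatic side effect score as listed in the training data of the Drug Induced Liver Injury Prediction System (DILIps)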; for HepSE hepatic failure: call rule not given here;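 for HepSE hepatitis: Hepatitis-related hepatic side effect score taken from the training data of DILIps, a prediction system for drug-induced liver injury; call rule not given here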;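 for HepSE hepatomegaly: hepatic side effect score for hepatomegaly, taken from the training set of the DILIps drug-induced liver injury prediction system; call rule not given here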; for HepSE liver disease: call rule not given here;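 for HepSE liver fatty: hepatic side effect score for fatty liver, taken from the DILIps training set for predicting drug-induced liver injury; call rule not given here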;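 for HepSE liver function tests abnormal: hepatic side effect score taken from the DILIps (drug-induced liver injury prediction system) training data, here covering abnormal liver function test findings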
Hepatotoxicity [3] = system: Hepatotoxicity; remark: listed apart in the source;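 for HepSE Combined Scores: combined hepatic side effect score as listed in the training data of the Drug Induced Liver Injury Prediction System (DILIps)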; for HepSE hepatic failure: call rule not given here;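 for HepSE hepatitis: Hepatitis-related hepatic side effect score taken from the training data of DILIps, a prediction system for drug-induced liver injury; call rule not given here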;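 for HepSE hepatomegaly: hepatic side effect score for hepatomegaly, taken from the training set of the DILIps drug-induced liver injury prediction system; call rule not given here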; for HepSE liver disease: call rule not given here;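 for HepSE liver fatty: hepatic side effect score for fatty liver, taken from the DILIps training set for predicting drug-induced liver injury; call rule not given here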;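 for HepSE liver function tests abnormal: hepatic side effect score taken from the DILIps (drug-induced liver injury prediction system) training data, here covering abnormal liver function test findings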
Hepatotoxicity [4] = system: Hepatotoxicity; remark: listed apart in the source; for HepSE hepatic failure: call rule not given here;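 for HepSE hepatitis: Hepatitis-related hepatic side effect score taken from the training data of DILIps, a prediction system for drug-induced liver injury; call rule not given here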;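 for HepSE hepatomegaly: hepatic side effect score for hepatomegaly, taken from the training set of the DILIps drug-induced liver injury prediction system; call rule not given here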; for HepSE liver disease: call rule not given here;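 for HepSE liver fatty: hepatic side effect score for fatty liver, taken from the DILIps training set for predicting drug-induced liver injury; call rule not given here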;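 for HepSE liver function tests abnormal: hepatic side effect score taken from the DILIps (drug-induced liver injury prediction system) training data, here covering abnormal liver function test findings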
Hepatotoxicity [5] = system: Hepatotoxicity; remark: listed apart in the source; for HepSE hepatic failure: call rule not given here; for HepSE liver disease: call rule not given here
Hepatotoxicity [6] = system: Hepatotoxicity; remark: listed apart in the source; for HepSE hepatic failure: call rule not given here; for HepSE liver disease: call rule not given here
Hepatotoxicity [7] = system: Hepatotoxicity; remark: listed apart in the source
Hepatotoxicity [8] = system: Hepatotoxicity; remark: listed apart in the source
Hepatotoxicity [9] = system: Hepatotoxicity; remark: listed apart in the source
Hepatotoxicity [10] = system: Hepatotoxicity; remark: listed apart in the source
Hepatotoxicity [11] = system: Hepatotoxicity; remark: listed apart in the source
Hepatotoxicity [12] = system: Hepatotoxicity; remark: listed apart in the source
Hepatotoxicity [13] = system: Hepatotoxicity; remark: listed apart in the source
Hepatotoxicity [14] = system: Hepatotoxicity; remark: listed apart in the source

SMILES	HepSE_liver fatty (Hepatotoxicity [1])	HepSE_hepatic failure (Hepatotoxicity [2])	HepSE_hepatomegaly (Hepatotoxicity [3])	HepSE_cholelithiasis (Hepatotoxicity [4])	HepSE_liver function tests abnormal (Hepatotoxicity [5])	HepSE_hepatitis (Hepatotoxicity [6])	HepSE_liver disease (Hepatotoxicity [7])	HepSE_Combined Scores (Hepatotoxicity [8])	HepSE_bilirubinemia (Hepatotoxicity [9])	HepSE_hepatic necrosis (Hepatotoxicity [10])	HepSE_cirrhosis (Hepatotoxicity [11])	HepSE_elevated liver function tests (Hepatotoxicity [12])	HepSE_cholecystitis (Hepatotoxicity [13])	HepSE_jaundice (Hepatotoxicity [14])
CCC(=O)[C@@]1(C)[C@H](C)C[C@H]2[C@@H]3CCC4=CC(=O)C=C[C@]4(C)[C@H]3[C@@H](O)C[C@@]21C [RIMEXOLONE]	0	0	0	0	0	0	0	0	0	0	0	0	0	0
O=P(O)(O)C(O)(Cc1cccnc1)P(=O)(O)O [RISEDRONIC ACID]	0	0	0	0	0	0	0	0	0	0	0	0	0	0
Cc1nc2n(c(=O)c1CCN1CCC(c3noc4cc(F)ccc34)CC1)CCCC2 [RISPERIDONE]	1	1	1	1	0	1	0	8	1	0	0	0	1	1
CCN(C)C(=O)Oc1cccc([C@H](C)N(C)C)c1 [RIVASTIGMINE]	0	0	0	1	0	0	0	2	0	0	0	0	1	0
CN(C)CCc1c[nH]c2ccc(Cn3cncn3)cc12 [RIZATRIPTAN]	0	0	0	0	0	0	0	0	0	0	0	0	0	0
C=CC[N+]1([C@H]2C[C@H]3[C@@H]4CC[C@H]5C[C@H](O)[C@@H](N6CCOCC6)C[C@]5(C)[C@H]4CC[C@]3(C)[C@H]2OC(C)=O)CCCC1 [ROCURONIUM]	0	0	0	0	0	0	0	0	0	0	0	0	0	0
CS(=O)(=O)c1ccc(C2=C(c3ccccc3)C(=O)OC2)cc1 [ROFECOXIB]	0	1	0	0	0	1	0	4	0	0	0	0	1	1
CCCN(CCC)CCc1cccc2c1CC(=O)N2 [ROPINIROLE]	0	0	0	1	0	1	0	4	1	0	0	0	1	0
CCCN1CCCC[C@H]1C(=O)Nc1c(C)cccc1C [ROPIVACAINE]	0	0	0	0	0	0	0	1	0	0	0	0	0	1
CN(CCOc1ccc(CC2SC(=O)NC2=O)cc1)c1ccccn1 (configuration not stated) [ROSIGLITAZONE]	0	1	0	0	0	1	0	3	1	0	0	0	0	0
CC(C)c1nc(N(C)S(C)(=O)=O)nc(-c2ccc(F)cc2)c1/C=C/[C@@H](O)C[C@@H](O)CC(=O)O [ROSUVASTATIN]	0	0	0	0	0	1	0	2	0	0	0	0	0	1
OCc1cc(C(O)CNCCCCCCOCCCCc2ccccc2)ccc1O (configuration not stated) [SALMETEROL]	0	0	0	0	0	0	0	0	0	0	0	0	0	0
C[C@H](O)[C@H](O)[C@H]1CNc2nc(N)[nH]c(=O)c2N1 [SAPROPTERIN]	0	0	0	0	0	0	0	0	0	0	0	0	0	0
